Test results from patent publication US5214047A, “Tetracyclic quinazoline derivatives, effective as antiarrythmic agents” (priority 1987, dated 1993).
Where a name gives a salt, the structure may show the parent alone. Read-outs that look alike come from different tables or passages of the source.

System: QT interval
Assay: QT interval prolongation (ECG, class III action) in anesthetized guinea pigs
Type: in vivo, Pirbright white guinea pigs
Details: for ED (20%): Cavia porcellus, read-out: Prolongation of the QT interval ED20%; for Potency relative to that of d-sotalol = 1.0: QT prolongation, ED20%
Procedure: The action of the novel substances has been tested as follows:
The experimental animals used were male and female Pirbright white guinea pigs weighing 300-500 g. 1.5 g/kg urethane i.p. were used for anesthesia. The substances were administered intravenously. The extremity lead II was recorded to measure the ECG conduction times and the heart rate. The measured variables were the QT and PQ intervals and the heart rate. 4-6 animals were used for each dose. The criterion for a class III action was an increase in the QT interval compared with the values before administration of the substance. A PQ increase and a large decrease in the heart rate were used as exclusion criteria. The ED20% is calculated from the linear relation between log dose (mg/kg) of the substance and the relative prolongation of the QT interval (Δ%).

[1] = guinea pigs, urethane anesthesia, intravenous, dose for 20% QT prolongation calculated from log dose (mg/kg) vs relative QT prolongation

SMILES | ED (20%) [1] [mg/kg] | Potency relative to that of d-sotalol = 1.0 (guinea pigs, intravenous) | ED (20%) (iv) [mg/kg]
CC1(C)CN=C2c3ccccc3N3CCCC3(c3ccc([N+](=O)[O-])cc3)N2C1 (stereo not drawn) [Example 42, 2,3,5,6,7,8-Hexahydro-3,3-dimethyl-6-(4-nitrophenyl)-2H-pyrimido[1,2-c]pyrrolo[1,2-a]quinazoline hydrochloride] | 0.78 | 4.7 | 
Fc1ccc(C23CCCN2c2ccc(Cl)cc2C2=NCCCN23)cc1 (stereo not drawn) [Example 30, 13-Chloro-6-(4-fluorophenyl)-2,3,5,6,7,8-hexahydro-2H-pyrimido[1,2-c]pyrrolo[1,2-a]quinazoline] | 1 | 3.6 | 
O=[N+]([O-])c1cccc(C23CCCN2c2ccccc2C2=NCCCN23)c1 (stereo not drawn) [Example 31, 2,3,5,6,7,8-Hexahydro-6-(3-nitrophenyl)-2H-pyrimido[1,2-c]pyrrolo[1,2-a]quinazoline] | 0.56 | 6.5 | 
CC1CN=C2c3ccccc3N3CCCC3(c3ccc([N+](=O)[O-])cc3)N21 (stereo not drawn) [Example 48, 2,3,5,6,7,8-Hexahydro-3-methyl-5-(4-nitrophenyl)imidazo[1,2-c]pyrrolo[1,2-a]quinazoline hydrochloride] | 0.31 | 11.8 | 
COc1cc2c(cc1OC)N1CCCC1(c1ccccc1)N1CCN=C21 (stereo not drawn) [Example 5, 2,3,5,6,7,8-Hexahydro-11,12-dimethoxy-5-phenylimidazo[1,2-c]pyrrolo[1,2-a]quinazoline] | 1 | 3.5 | 
c1ccc(C23CCCN2c2ccccc2C2=NCCN23)cc1 (stereo not drawn) [Example 50, hydrochloride] | 0.25 | 15 | 
Clc1ccc(C23CCCN2c2ccccc2C2=NCCN23)s1 (stereo not drawn) [Example 19, 5-(2-(5-Chlorothienyl))-2,3,5,6,7,8-hexahydroimidazo[1,2-c]pyrrolo[1,2-a]quinazoline hydrochloride] | 1.4 | 2.6 | 
c1ccc(C23CCCN2c2ccccc2C2=NC4CCCCC4N23)cc1 (stereo not drawn) [Example 22, 2,3,5,6,7,8-Hexahydro-2,3-tetramethylene-5-phenylimidazo[1,2-c]pyrrolo[1,2-a]quinazoline] |  | 6.5 | 0.56
CC1(C)CN=C2c3ccccc3N3CCCC3(c3ccccc3)N21 (stereo not drawn) [Example 43, 2,3,5,6,7,8-Hexahydro-3,3-dimethyl-5-phenylimidazo[1,2-c]pyrrolo[1,2-a]quinazoline hydrochloride] | 0.6 | 6.1 | 
c1ccc(C23CCCN2c2ccccc2C2=NCCCN23)cc1 (stereo not drawn) [Example 49, 2,3,5,6,7,8-Hexahydro-6-phenyl-2H-pyrimido[1,2-c]pyrrolo[1,2-a]quinazoline hydrochloride] | 0.32 | 11 | 
CC1CN=C2c3ccccc3N3CCCC3(c3ccccc3)N21 (stereo not drawn) [Example 24, hydrochloride] | 0.29 | 12 | 
Clc1ccc2c(c1)C1=NCCCN1C1(c3ccccc3)CCCN21 (stereo not drawn) [Example 29, 13-Chloro-2,3,5,6,7,8-hexahydro-6-phenyl-2H-pyrimido[1,2-c]pyrrolo[1,2-a]quinazoline hydrochloride] | 0.55 | 6.6 | 
CC1(C)CN=C2c3ccccc3N3CCCC3(c3ccc([N+](=O)[O-])cc3)N21 (stereo not drawn) [Example 46, 2,3,5,6,7,8-Hexahydro-3,3-dimethyl-5-(4-nitrophenyl)imidazo[1,2-c]pyrrolo[1,2-a]quinazoline hydrochloride] | 0.55 | 6.7 | 
Fc1ccc(C23CCCN2c2cc(Cl)ccc2C2=NCCCN23)cc1 (stereo not drawn) [Example 38, 2-Chloro-6-(4-fluorophenyl)-2,3,5,6,7,8-hexahydro-2H-pyrimido[1,2-c]pyrrolo[1,2-a]quinazoline hydrochloride] | 0.83 | 4.4 | 
Clc1ccc(C23CCCN2c2ccccc2C2=NCCN23)cc1Cl (stereo not drawn) [Example 9] | 1.5 | 2.4 | 
CS(=O)(=O)Oc1ccc(C23CCCN2c2ccccc2C2=NCCN23)cc1 (stereo not drawn) [Example 53, hydrochloride] | 1 | 3.6 | 
Fc1ccc(C23CCCN2c2ccccc2C2=NCCCN23)cc1 (stereo not drawn) [Example 27, 6-(4-Fluorophenyl)-2,3,5,6,7,8-hexahydro-2H-pyrimido[1,2-c]pyrrolo[1,2-a]quinazoline] | 0.42 | 8.7 | 
COc1ccc(C23CCCN2c2ccccc2C2=NCCN23)cc1 (stereo not drawn) [Example 8] | 0.61 | 6.0 | 
